Experimental data from patent publication US20250361230A1, “LATS Inhibitors and Uses Thereof” (The USA, as Represented by the Secretary, Dept. of Heath …, priority 2022, published 2025).
Read-outs that look alike come from different tables or passages of the source.

Columns and labels:
Format in all cases: biochemical
[1] = molecular target: T1, LATS2 (Homo sapiens, UniProt Q9NRM7); test: RBC HotSpot kinase assay (33P-ATP, P81 filter-binding), LATS2; conditions: read-out: LATS2 IC50
T1 sequence (Q9NRM7 1-1088): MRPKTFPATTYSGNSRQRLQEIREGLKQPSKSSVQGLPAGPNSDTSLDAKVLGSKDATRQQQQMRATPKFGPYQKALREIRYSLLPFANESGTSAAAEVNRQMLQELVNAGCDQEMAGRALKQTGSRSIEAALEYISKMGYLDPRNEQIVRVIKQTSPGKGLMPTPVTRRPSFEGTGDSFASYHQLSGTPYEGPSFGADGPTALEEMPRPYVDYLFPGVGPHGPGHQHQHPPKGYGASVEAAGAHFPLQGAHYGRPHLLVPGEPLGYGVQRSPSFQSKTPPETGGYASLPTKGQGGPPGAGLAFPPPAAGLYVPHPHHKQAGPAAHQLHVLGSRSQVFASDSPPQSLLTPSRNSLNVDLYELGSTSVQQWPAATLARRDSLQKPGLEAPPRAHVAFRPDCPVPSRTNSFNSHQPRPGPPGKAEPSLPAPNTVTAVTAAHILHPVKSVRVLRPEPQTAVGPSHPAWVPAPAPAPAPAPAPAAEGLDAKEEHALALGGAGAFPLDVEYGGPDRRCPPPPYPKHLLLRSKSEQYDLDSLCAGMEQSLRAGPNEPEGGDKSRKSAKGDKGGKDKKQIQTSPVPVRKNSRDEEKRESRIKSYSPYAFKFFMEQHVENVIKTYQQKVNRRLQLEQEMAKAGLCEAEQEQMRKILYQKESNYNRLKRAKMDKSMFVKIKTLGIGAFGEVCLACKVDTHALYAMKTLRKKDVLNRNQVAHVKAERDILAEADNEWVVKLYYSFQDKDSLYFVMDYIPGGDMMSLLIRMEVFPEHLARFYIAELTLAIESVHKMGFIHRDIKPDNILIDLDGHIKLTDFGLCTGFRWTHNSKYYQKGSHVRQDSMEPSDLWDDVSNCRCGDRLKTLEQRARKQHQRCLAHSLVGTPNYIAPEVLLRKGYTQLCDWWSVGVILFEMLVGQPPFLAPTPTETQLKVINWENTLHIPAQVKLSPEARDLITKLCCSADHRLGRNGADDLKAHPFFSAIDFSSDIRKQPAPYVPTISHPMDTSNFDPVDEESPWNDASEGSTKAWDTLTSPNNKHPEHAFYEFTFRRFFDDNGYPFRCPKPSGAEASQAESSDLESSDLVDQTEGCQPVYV
Protocol: (§1) Biochemical kinase inhibitory data was obtained for various exemplary compounds prepared according to the above.
(§2) The reagents used are as follows: Base Reaction buffer; 20 mM Hepes (pH 7.5), 10 mM MgCl2, 1 mM EGTA, 0.01% Brij35, 0.02 mg/ml BSA, 0.1 mM Na3VO4, 2 mM DTT, […]. Required cofactors were added individually to each kinase reaction.
(§3) The reaction procedure was as follows: • 1) Substrates were prepared in freshly prepared Reaction Buffer. • 2) Any required cofactors were delivered to the substrate solution above. • 3) Kinase was delivered into the substrate solution and gently mixed. • 4) Compounds were delivered in 100% DMSO into the kinase reaction mixture by Acoustic technology (Echo550; nanoliter range), followed by incubation for 20 min at room temp. • 5) ^33P-ATP was delivered into the reaction mixture to initiate the reaction. • 6) The mixture was incubated for 2 hours at room temperature. • 7) Kinase activity was detected by P81 filter-binding method.
(§4) Using the above functional assay, the inhibitory activity of the compounds for LATS1/2 versus AKT was characterized. The assays were typically run in a 10-point curve, in singlet, to produce a titration curve from which an IC50 value was obtained.
(§5) The reagents used are as follows: Base Reaction buffer; 20 mM Hepes (pH 7.5), 10 mM MgCl2, 1 mM EGTA, 0.01% Brij35, 0.02 mg/ml BSA, 0.1 mM Na3VO4, 2 mM DTT, 1% DMSO. Required cofactors were added individually to each kinase reaction.
(§6) Biochemical kinase inhibitory data was obtained for various exemplary compounds prepared according to the above in accordance with the protocols described in Examples 4 and 8. All biological activities are IC50, in nM.

[2] = molecular target: T2, LATS1 (Homo sapiens, UniProt O95835); test: RBC HotSpot kinase assay (33P-ATP, P81 filter-binding), LATS1; conditions: read-out: LATS1 IC50
T2 sequence (O95835 1-1130): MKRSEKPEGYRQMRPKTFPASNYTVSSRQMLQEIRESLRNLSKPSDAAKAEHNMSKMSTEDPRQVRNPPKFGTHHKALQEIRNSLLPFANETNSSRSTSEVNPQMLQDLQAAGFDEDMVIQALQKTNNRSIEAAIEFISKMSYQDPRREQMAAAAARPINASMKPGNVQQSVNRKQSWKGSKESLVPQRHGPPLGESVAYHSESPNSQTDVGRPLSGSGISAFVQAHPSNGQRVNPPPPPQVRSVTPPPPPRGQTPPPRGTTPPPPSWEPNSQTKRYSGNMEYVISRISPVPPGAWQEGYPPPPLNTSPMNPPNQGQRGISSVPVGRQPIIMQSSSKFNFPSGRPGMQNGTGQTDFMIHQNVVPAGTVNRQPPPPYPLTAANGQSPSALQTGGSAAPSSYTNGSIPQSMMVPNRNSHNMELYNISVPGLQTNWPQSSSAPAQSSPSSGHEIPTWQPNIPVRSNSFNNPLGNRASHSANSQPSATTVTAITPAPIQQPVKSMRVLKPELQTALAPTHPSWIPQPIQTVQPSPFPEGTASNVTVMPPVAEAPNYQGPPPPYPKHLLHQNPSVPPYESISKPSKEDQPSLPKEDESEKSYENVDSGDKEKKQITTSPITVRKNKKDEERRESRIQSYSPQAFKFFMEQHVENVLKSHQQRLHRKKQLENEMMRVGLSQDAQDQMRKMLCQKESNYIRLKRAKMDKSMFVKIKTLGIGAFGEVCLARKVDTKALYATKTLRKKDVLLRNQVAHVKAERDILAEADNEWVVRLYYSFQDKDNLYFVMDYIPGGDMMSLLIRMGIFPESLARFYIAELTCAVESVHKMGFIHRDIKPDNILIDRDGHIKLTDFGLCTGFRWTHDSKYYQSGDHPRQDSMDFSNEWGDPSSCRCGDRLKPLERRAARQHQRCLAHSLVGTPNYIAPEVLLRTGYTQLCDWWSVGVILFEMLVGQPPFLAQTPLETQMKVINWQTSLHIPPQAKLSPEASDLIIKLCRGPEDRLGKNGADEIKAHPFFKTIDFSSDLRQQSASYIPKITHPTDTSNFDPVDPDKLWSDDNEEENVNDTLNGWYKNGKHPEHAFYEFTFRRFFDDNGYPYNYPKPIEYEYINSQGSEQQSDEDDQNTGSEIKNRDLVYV
Protocol: as §1, §2, §3, §4, §5, §6

[3] = molecular target: AKT (Homo sapiens, UniProt P31749); test: RBC HotSpot kinase assay (33P-ATP, P81 filter-binding), AKT; conditions: read-out: AKT IC50
Protocol: as §1, §2, §3, §4, §5, §6

[4] = Table 28, biochemical kinase assay
[5] = Table 32, biochemical kinase assay

Sequence of AKT (P31749 whole entry): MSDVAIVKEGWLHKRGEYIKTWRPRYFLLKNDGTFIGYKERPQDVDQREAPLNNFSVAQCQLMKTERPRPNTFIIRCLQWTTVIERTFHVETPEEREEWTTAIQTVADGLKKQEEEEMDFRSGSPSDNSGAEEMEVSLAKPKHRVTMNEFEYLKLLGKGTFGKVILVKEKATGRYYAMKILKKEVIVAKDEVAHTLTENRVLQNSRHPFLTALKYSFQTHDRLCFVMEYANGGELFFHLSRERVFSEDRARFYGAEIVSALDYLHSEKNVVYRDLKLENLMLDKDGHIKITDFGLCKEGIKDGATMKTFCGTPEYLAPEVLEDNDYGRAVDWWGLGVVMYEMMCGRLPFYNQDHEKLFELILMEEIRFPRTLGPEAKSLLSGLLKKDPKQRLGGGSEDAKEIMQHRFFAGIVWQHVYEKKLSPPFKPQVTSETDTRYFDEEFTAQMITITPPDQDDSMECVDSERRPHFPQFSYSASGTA

IC50 [1, 4] | IC50 [2, 4] | IC50 [3, 4] | IC50 [1, 5] | IC50 [2, 5] | IC50 [3, 5] | Structure (SMILES)
42.8 nM | 11.4 nM | 712 nM | – | – | – | OC1(c2ccc(-c3ccnc4[nH]cc(F)c34)cc2Cl)CCNCC1 [Compound 97, 4-(2-chloro-4-(3-fluoro-1H-pyrrolo[2,3-b]pyridin-4-yl)phenyl)piperidin-4-ol]
72 nM | 34 nM | 1190 nM | – | – | – | NCc1ccc(-c2ccnc3[nH]ccc23)c(F)c1 [Compound 263, (3-fluoro-4-(1H-pyrrolo[2,3-b]pyridin-4-yl)phenyl) methanamine]
– | – | – | 2.4 nM | 3 nM | 1.4 nM | NCC(=O)NCC(O)(c1ccc(Cl)cc1)c1ccc(-c2ccnc3[nH]ccc23)cc1 (stereo not drawn) [Compound 1020, N-(2-(4-(1H-pyrrolo[2,3-b]pyridin-4-yl)phenyl)-2-(4-chlorophenyl)-2-hydroxyethyl)-2-aminoacetamide]
4260 nM | 9000 nM | > 10000 nM | – | – | – | Cc1cc(-c2ccc(CN)cc2)c2cc[nH]c2n1 [Compound 256, (4-(6-methyl-1H-pyrrolo[2,3-b]pyridin-4-yl)phenyl) methanamine]
428 nM | 697 nM | 125 nM | – | – | – | Cc1cc(-c2ccnc3[nH]cc(F)c23)cc(Cl)c1[C@@]1(O)[C@H](C)CN(C2COC2)C[C@@H]1C [Compound 49, (3R,4s,5S)-4-(2-chloro-4-(3-fluoro-1H-pyrrolo[2,3-b]pyridin-4-yl)-6-methylphenyl)-3,5-dimethyl-1-(oxetan-3-yl)piperidin-4-ol]
24 nM | 72 nM | 2330 nM | – | – | – | NCc1ccc(-c2ccnc3[nH]cc(-c4ccc(F)cc4)c23)cc1 [Compound 243, (4-(3-(4-fluorophenyl)-1H-pyrrolo[2,3-b]pyridin-4-yl)phenyl) methanamine]
61 nM | 46 nM | 2980 nM | – | – | – | OC1(c2c(F)cc(-c3ccnc4[nH]cc(F)c34)cc2F)CC2(CNC2)C1 [Compound 109, 6-(2,6-difluoro-4-(3-fluoro-1H-pyrrolo[2,3-b]pyridin-4-yl)phenyl)-2-azaspiro[3.3]heptan-6-ol]
20 nM | 8 nM | 732 nM | – | – | – | NCc1ccc(-c2ccnc3[nH]ccc23)cc1Cl [Compound 283, (2-chloro-4-(1H-pyrrolo[2,3-b]pyridin-4-yl)phenyl) methanamine]
65 nM | 231 nM | > 10000 nM | – | – | – | O=C1NCc2cc(-c3ccnc4[nH]ccc34)ccc21 [Compound 258, 5-(1H-pyrrolo[2,3-b]pyridin-4-yl)isoindolin-1-one]
– | – | – | 3 nM | 4.1 nM | 1.3 nM | CNCC(=O)NCC(O)(c1ccc(Cl)cc1)c1ccc(-c2ccnc3[nH]ccc23)cc1 (stereo not drawn) [Compound 1027, N-(2-(4-(1H-pyrrolo[2,3-b]pyridin-4-yl)phenyl)-2-(4-chlorophenyl)-2-hydroxyethyl)-2-(methylamino)acetamide]
29.4 nM | 17.8 nM | 4750 nM | – | – | – | CC(=O)N1C[C@@H](C)[C@](O)(c2c(F)cc(-c3ccnc4[nH]cc(F)c34)cc2F)[C@@H](C)C1 [Compound 94, 1-((3S,4s,5R)-4-(2,6-difluoro-4-(3-fluoro-1H-pyrrolo[2,3-b]pyridin-4-yl)phenyl)-4-hydroxy-3,5-dimethylpiperidin-1-yl)ethan-1-one]
25 nM | 28 nM | 1070 nM | – | – | – | CN1CCC(O)(c2ccc(-c3ccnc4[nH]cc(F)c34)cc2)CC1 [Compound 131, 4-(4-(3-fluoro-1H-pyrrolo[2,3-b]pyridin-4-yl)phenyl)-1-methylpiperidin-4-ol]
15.5 nM | 10.7 nM | 1300 nM | – | – | – | O=C([C@@H]1CCCN1)N1CCC(c2ccc(-c3ccnc4[nH]cc(F)c34)cc2Cl)CC1 [Compound 166, (S)-4-(3-chloro-4-(1-prolylpiperidin-4-yl)phenyl)-3-fluoro-1H-pyrrolo[2,3-b]pyridine]
8.9 nM | 5.3 nM | 51.2 nM | – | – | – | OC1(c2ccc(-c3ccnc4[nH]cc(Br)c34)cc2Cl)C[C@H]2CC[C@@H](C1)N2 (stereo partly drawn) [Compound 122, (1R,5S)-3-(4-(3-bromo-1H-pyrrolo[2,3-b]pyridin-4-yl)-2-chlorophenyl)-8-azabicyclo[3.2.1]octan-3-ol]
3520 nM | 5790 nM | > 10000 nM | – | – | – | Cc1nnc(C2(c3ccc(-c4ccnc5[nH]cc(F)c45)cc3)CCN(C(=O)OC(C)(C)C)CC2)o1 [Compound 195, tert-butyl 4-(4-(3-fluoro-1H-pyrrolo[2,3-b]pyridin-4-yl)phenyl)-4-(5-methyl-1,3,4-oxadiazol-2-yl)piperidine-1-carboxylate]
148 nM | 90 nM | 1390 nM | – | – | – | NCc1ccc(-c2c(F)cnc3[nH]ccc23)cc1 [Compound 273, (4-(5-fluoro-1H-pyrrolo[2,3-b]pyridin-4-yl)phenyl) methanamine]
195 nM | 424 nM | 85 nM | – | – | – | Fc1c[nH]c2nccc(-c3ccc(C4(C(F)(F)F)CCNCC4)cc3Cl)c12 [Compound 197, 4-(2-chloro-4-(4-(trifluoromethyl)piperidin-4-yl)phenyl)-3-fluoro-1H-pyrrolo[2,3-b]pyridine]
